Assay [1] deals with Rattus norvegicus. In words: Inhibition of effort-related effects of TBZ in Harlan Sprague Dawley rat assessed as decrease in TBZ-induced chow intake at 80 to 160 mg/kg, po administered 2 hrs prior to testing followed by TBZ addition at 90 mins prior to testing measured for 30 mins. The assay is classed as functional, organism-based.
Assay [2] deals with Rattus norvegicus. Description: Ratio of compound effect for TBZ-induced chow intake in icv administered Harlan Sprague Dawley rat to compound effect for TBZ-induced chow intake in orally administered Harlan Sprague Dawley rat. The assay is classed as functional.
Assay [3] relates to Rattus norvegicus. Description: Ratio of compound effect for TBZ-induced lever presses in icv administered Harlan Sprague Dawley rat to compound effect for TBZ-induced lever presses in orally administered Harlan Sprague Dawley rat. It counts as functional.
Assay [4] deals with Rattus norvegicus. In words: Inhibition of effort-related effects of TBZ in Harlan Sprague Dawley rat assessed as increase in TBZ-induced lever presses at 160 mg/kg, po administered 3 hrs prior to testing followed by coadministration with TBZ at 90 mins prior to testing measured for 30 mins. The assay is classed as functional, organism-based.
For assay [5], the system named is Rattus norvegicus. Description: Inhibition of effort-related effects of TBZ in 90 mins TBZ pretreated Harlan Sprague Dawley rat assessed as decrease in TBZ-induced chow intake at 4 to 8 microg, icv administered via chronic indwelling cannulae 20 mins prior to testing measured for 30 mins. The assay is classed as functional, organism-based.
Assay [6] deals with Rattus norvegicus. Description: Inhibition of effort-related effects of TBZ in Harlan Sprague Dawley rat assessed as increase in TBZ-induced lever presses at 80 to 160 mg/kg, po administered 2 hrs prior to testing followed by TBZ addition at 90 mins prior to testing measured for 30 mins. The assay is classed as functional, organism-based.
Assay [7] deals with Rattus norvegicus. In words: Inhibition of effort-related effects of TBZ in Harlan Sprague Dawley rat assessed as decrease in TBZ-induced chow intake at 160 mg/kg, po administered 3 hrs prior to testing followed by coadministration with TBZ at 90 mins prior to testing measured for 30 mins. It counts as functional, organism-based.
Assay [8] concerns Rattus norvegicus. In words: Inhibition of effort-related effects of TBZ in 90 mins TBZ pretreated Harlan Sprague Dawley rat assessed as increase in TBZ-induced lever presses at 4 to 8 microg, icv administered via chronic indwelling cannulae 20 mins prior to testing measured for 30 mins. It counts as functional, organism-based.

Each structure is given as a SMILES string. Calls of active or inactive are those of the source. The rule behind the calls is not given here.

Consider `COc1cc(/C=C/C(=O)CC(=O)/C=C/c2ccc(O)c(OC)c2)ccc1O` [CURCUMIN], for which the inhibition entry with Rattus norvegicus [1] and in the assay on Rattus norvegicus [6] was “inactive” in each case. Further, the Ratio in the assay with Rattus norvegicus [2] and in the assay on Rattus norvegicus [3] was >1000 each time. The inhibition entry with Rattus norvegicus [4], in the assay on Rattus norvegicus [5], in the assay with Rattus norvegicus [7] and in the assay on Rattus norvegicus [8] was “Active” throughout.

Values taken from ChEMBL document CHEMBL4130439, “Oral Ingestion and Intraventricular Injection of Curcumin Attenuates the Effort-Related Effects of the VMAT-2 Inhibitor Tetrabenazine: Implications for Motivational Symptoms of Depression” (2017).
